Test results taken from ChEMBL document CHEMBL1201862, “PubChem BioAssay data set” (2004).
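Following 48 hours of exposure in 96-well plates, responses at five concentrations were used to interpolate endpoints linearly. GI50 marks 50% less growth.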 Active and inactive are the calls of the source. Cut-off read from the data, not from the text of the source: active = GI50 up to about 1.1 µM and inactive = higher.

What was measured:
Experiment in all cases: DTP human tumour cell line panel, 48 h
[1] = test system: U-251
[2] = test system: UACC-62
[3] = test system: MOLT-4
[4] = test system: UO-31
[5] = test system: SNB-75
[6] = test system: KM12
[7] = test system: HCT-15
[8] = test system: Malme-3M
[9] = test system: SK-MEL-28
[10] = test system: HL-60
[11] = test system: 786-0
[12] = test system: ACHN
[13] = test system: SF-295
[14] = test system: RXF 393
[15] = test system: LOX IMVI
[16] = test system: COLO 205

Structure (SMILES)	GI50 [1]	GI50 [2]	GI50 [3]	GI50 [4]	GI50 [5]	GI50 [6]	GI50 [7]	GI50 [8]	GI50 [9]	GI50 [10]	GI50 [11]	GI50 [12]	GI50 [13]	GI50 [14]	GI50 [15]	GI50 [16]
CC(C)(C)c1ccccc1NS(=O)(=O)c1ccccc1	> 100 µM (inactive)	> 100 µM (inactive)	38 µM (inactive)	30.1 µM (inactive)	> 100 µM (inactive)	65 µM (inactive)	> 100 µM	> 100 µM (inactive)	> 100 µM (inactive)	36.9 µM (inactive)	> 100 µM (inactive)	> 100 µM (inactive)	86.1 µM (inactive)	76.7 µM (inactive)	–	–
O=C1c2c(c3c4ccccc4[nH]c3c3[nH]c4ccccc4c23)C(=O)N1Cc1ccccc1	2.33 µM (inactive)	4.25 µM (inactive)	2.14 µM (inactive)	2.53 µM (inactive)	3.09 µM (inactive)	3.08 µM (inactive)	2.06 µM	3.54 µM (inactive)	2.89 µM (inactive)	–	3.13 µM (inactive)	2.87 µM (inactive)	3.9 µM (inactive)	1.51 µM (inactive)	2.44 µM (inactive)	2.2 µM (inactive)
NS(=O)(=O)c1ccc(NC(=O)c2cccn3c(=O)c4ccccc4nc23)cc1	> 100 µM (inactive)	> 100 µM (inactive)	80.2 µM (inactive)	85.5 µM (inactive)	> 100 µM (inactive)	41.2 µM (inactive)	–	> 100 µM (inactive)	> 100 µM (inactive)	> 100 µM (inactive)	> 100 µM (inactive)	> 100 µM (inactive)	> 100 µM (inactive)	> 100 µM (inactive)	86.3 µM (inactive)	> 100 µM (inactive)
N=C(c1ccccc1)N1CCCCC1	> 100 µM (inactive)	–	–	> 100 µM (inactive)	> 100 µM (inactive)	> 100 µM (inactive)	–	49 µM (inactive)	> 100 µM (inactive)	> 100 µM (inactive)	> 100 µM (inactive)	–	> 100 µM (inactive)	> 100 µM (inactive)	> 100 µM (inactive)	> 100 µM (inactive)
COc1ccc(C2S/C(=C\c3cccc(O)c3)C(=O)N2NC(=O)Cc2ccccc2)cc1 (centres undefined)	> 100 µM (inactive)	> 100 µM (inactive)	> 100 µM (inactive)	> 100 µM (inactive)	> 100 µM (inactive)	> 100 µM (inactive)	> 100 µM	> 100 µM (inactive)	–	> 100 µM (inactive)	> 100 µM (inactive)	> 100 µM (inactive)	> 100 µM (inactive)	12 µM (inactive)	> 100 µM (inactive)	> 100 µM (inactive)
CCCCCC/C=C1\CCC(CN2CCCC2)C1=O (centres undefined)	15.6 µM (inactive)	18.2 µM (inactive)	3.76 µM (inactive)	18.9 µM (inactive)	20.9 µM (inactive)	3.56 µM (inactive)	9.16 µM	19.2 µM (inactive)	19.1 µM (inactive)	2.33 µM (inactive)	2.61 µM (inactive)	18.3 µM (inactive)	18.9 µM (inactive)	19.4 µM (inactive)	8.3 µM (inactive)	16.4 µM (inactive)
N/N=C1\c2ccccc2C2/C(=N\N)c3ccccc3C12 (centres undefined)	> 100 µM (inactive)	> 100 µM (inactive)	> 100 µM (inactive)	> 10 µM (inactive)	56.1 µM (inactive)	> 100 µM (inactive)	> 100 µM	> 100 µM (inactive)	> 100 µM (inactive)	> 100 µM (inactive)	> 100 µM (inactive)	> 100 µM (inactive)	> 100 µM (inactive)	> 100 µM (inactive)	> 100 µM (inactive)	> 100 µM (inactive)
N#CCCN(CCC#N)c1ccc(/C=C2\N=C(COc3ccc(Cl)cc3Cl)OC2=O)cc1	> 100 µM (inactive)	> 100 µM (inactive)	> 100 µM (inactive)	> 100 µM (inactive)	71.8 µM (inactive)	> 100 µM (inactive)	> 100 µM	> 100 µM (inactive)	> 100 µM (inactive)	> 100 µM (inactive)	> 100 µM (inactive)	–	> 100 µM (inactive)	–	> 100 µM (inactive)	> 100 µM (inactive)
C[C@]12CCC(=O)C[C@H]1CCC(O)[C@@H]2Br (some centres undefined)	> 100 µM (inactive)	> 100 µM (inactive)	> 100 µM (inactive)	> 100 µM (inactive)	> 100 µM (inactive)	> 100 µM (inactive)	> 100 µM	> 100 µM (inactive)	> 100 µM (inactive)	> 100 µM (inactive)	> 100 µM (inactive)	> 100 µM (inactive)	> 100 µM (inactive)	–	> 100 µM (inactive)	> 100 µM (inactive)
CC1(C)C2CCC13C(=O)C1OC3(C2)C2C(=O)N(c3ccccc3)C(=O)C12 (centres undefined)	> 100 µM (inactive)	> 100 µM (inactive)	> 100 µM (inactive)	> 100 µM (inactive)	> 100 µM (inactive)	> 100 µM (inactive)	> 100 µM	> 100 µM (inactive)	–	> 100 µM (inactive)	> 100 µM (inactive)	> 100 µM (inactive)	> 100 µM (inactive)	> 100 µM (inactive)	> 100 µM (inactive)	> 100 µM (inactive)
C[C@@H]1C[C@]2(C[C@@H](C)C3[C@@H](CC4(C)[C@@H]5CCC6C(C)(C)OC(=O)C=C[C@]67C[C@@]5(CC[C@]34C)OO7)O2)OC1=O (some centres undefined)	73.3 µM (inactive)	21.2 µM (inactive)	–	51.8 µM (inactive)	18.4 µM (inactive)	–	> 100 µM	37.9 µM (inactive)	66.7 µM (inactive)	46.2 µM (inactive)	> 100 µM (inactive)	92.5 µM (inactive)	36 µM (inactive)	> 100 µM (inactive)	44.2 µM (inactive)	> 100 µM (inactive)
COc1ccc(O)cc1C=O	> 100 µM (inactive)	32.7 µM (inactive)	67.6 µM (inactive)	> 100 µM (inactive)	–	23.8 µM (inactive)	37.6 µM	46.3 µM (inactive)	65.3 µM (inactive)	21.4 µM (inactive)	> 100 µM (inactive)	> 100 µM (inactive)	> 100 µM (inactive)	> 100 µM (inactive)	54 µM (inactive)	> 100 µM (inactive)
O=C1[C@H]2ON(c3ccccc3)C(c3ccccc3Cl)[C@H]2C(=O)N1c1ccc(Cc2ccc(N3C(=O)[C@@H]4ON(c5ccccc5)C(c5ccccc5Cl)[C@@H]4C3=O)cc2)cc1 (some centres undefined)	> 100 µM (inactive)	> 100 µM (inactive)	> 100 µM (inactive)	> 100 µM (inactive)	> 100 µM (inactive)	> 100 µM (inactive)	> 100 µM	> 100 µM (inactive)	> 100 µM (inactive)	> 100 µM (inactive)	> 100 µM (inactive)	> 100 µM (inactive)	> 100 µM (inactive)	–	> 100 µM (inactive)	> 100 µM (inactive)
COC1=C(C)C(=O)c2c(cc3c(c2O)C(C)(CCC=C(C)C)C(C)O3)C1=O (centres undefined)	> 44.6 µM (inactive)	22.3 µM (inactive)	> 100 µM (inactive)	> 100 µM (inactive)	19.9 µM (inactive)	> 55.7 µM (inactive)	27.4 µM	> 76.4 µM (inactive)	> 100 µM (inactive)	> 100 µM (inactive)	> 100 µM (inactive)	> 100 µM (inactive)	20.3 µM (inactive)	> 100 µM (inactive)	18.2 µM (inactive)	> 100 µM (inactive)
Cn1ncnc1CCc1ccccc1	> 100 µM (inactive)	> 100 µM (inactive)	> 100 µM (inactive)	> 100 µM (inactive)	> 100 µM (inactive)	> 100 µM (inactive)	> 100 µM	> 100 µM (inactive)	> 100 µM (inactive)	> 100 µM (inactive)	> 100 µM (inactive)	> 100 µM (inactive)	> 100 µM (inactive)	> 100 µM (inactive)	> 100 µM (inactive)	> 100 µM (inactive)
COC(=O)C(=O)C(C(=O)C=C(C)C)C(=O)C(=O)Nc1ccc(Cl)cc1C (centres undefined)	> 100 µM (inactive)	> 100 µM (inactive)	> 100 µM (inactive)	> 100 µM (inactive)	> 100 µM (inactive)	> 100 µM (inactive)	> 100 µM	> 100 µM (inactive)	> 100 µM (inactive)	> 100 µM (inactive)	> 100 µM (inactive)	> 100 µM (inactive)	> 100 µM (inactive)	> 100 µM (inactive)	> 100 µM (inactive)	> 100 µM (inactive)
C/C=C(/CCC1NCCC2c3ccccc3NC12)[Si](C)(C)C (centres undefined)	12.8 µM (inactive)	13.5 µM (inactive)	3.17 µM (inactive)	7.08 µM (inactive)	9.73 µM (inactive)	4.52 µM (inactive)	12.4 µM	–	5.2 µM (inactive)	2.12 µM (inactive)	11.3 µM (inactive)	14.2 µM (inactive)	15.6 µM (inactive)	6.53 µM (inactive)	7.31 µM (inactive)	1.69 µM (inactive)
COC(=O)CC[C@]12C[C@]13CC[C@]1(C)C4C(C)C[C@]5(CC(C)C(=O)O5)OC4CC1(C)C3CCC2C(C)(C)O (some centres undefined)	62.2 µM (inactive)	> 10 µM (inactive)	–	59.2 µM (inactive)	75 µM (inactive)	48.3 µM (inactive)	50.9 µM	> 100 µM (inactive)	84.9 µM (inactive)	23.3 µM (inactive)	> 100 µM (inactive)	88.3 µM (inactive)	> 100 µM (inactive)	46.8 µM (inactive)	32.5 µM (inactive)	74.8 µM (inactive)
